From EP1261344B1, “USE OF INDOLOQUINOXALINES FOR THE TREATMENT OF MULTIPLE SKLEROSIS” (OxyPharma AB, priority 2000, dated 2001)

Columns and labels:
[1] = Acute toxicity in rat; settings: in vivo
[2] = Acute toxicity in rabbit, cutaneous; settings: in vivo, topical or ocular, read-out: NOEL (No Observable Effect Level)
[3] = system: mice; assay: Chronic toxicity in mice, up to 270 days; type: in vivo; settings: tested up to 270 days on mice
[4] = system: EAE (experimental autoimmune encephalomyelitis) model; assay: EAE (experimental autoimmune encephalomyelitis) rat model, clinical score; type: in vivo, Lewis rats; settings: for onset is delayed / recovery starts earlier: Figure 2, versus control

Q: Which NOAEL ([1]; intravenous, read-out: NOEL (No Observable Effect Level)) does the source give for Cc1cc2nc3c4ccccc4n(CCN(C)C)c3nc2cc1C [B-220] here?
A: Its NOAEL is 12.5 mg/kg.

Q: What about the LD50 ([1]; iv) of the same compound?
A: The LD50 was greater than 100 mg/kg.

Q: What about the LD50 ([1]; po) of the same compound?
A: The LD50 was greater than 800 mg/kg.

Q: And the NOAEL [2]?
A: The NOAEL was 200 mg/kg.

Q: What about the chronic toxicity [3] of the same compound?
A: The chronic toxicity was “has not induced toxicity”.

Q: What about the “reduces the CNS symptoms” value ([4]; Figure 1, 6 mg/animal daily, clinical score scale 0-5, versus negative control) of the same compound?
A: The value was 2/3.

Q: What about the onset is delayed ([4]; 6 mg/animal) of the same compound?
A: The onset is delayed was roughly 2 days.

Q: What about the recovery starts earlier ([4]; 6 mg/animal) of the same compound?
A: Its recovery starts earlier is roughly 2 days.

Q: And the onset is delayed ([4]; 12 mg/animal)?
A: Its onset is delayed is roughly 4 days.

Q: And the recovery starts earlier ([4]; 12 mg/animal)?
A: The recovery starts earlier was roughly 3 days.
